{"source": "patent US20030157197A1", "about": "“PLANT-DERIVED ANTI-PARASITIC AND ANTIFUNGAL COMPOUNDS AND METHODS OF EXTRACTING THE COMPOUNDS” (priority 1998, published 2003)", "key": {"Enterocytozoon cuniculi": {"tested_on": "Enterocytozoon cuniculi", "design": "dose or concentration left out as unconfirmed", "settings": "cited from earlier work"}, "RK13 cells": {"tested_on": "RK13 cells", "design": "dose or concentration left out as unconfirmed", "settings": "cited from earlier work"}, "Cladosporium cucumerinum": {"tested_on": "Cladosporium cucumerinum", "experiment": "TLC bioautographic antifungal test", "assay_type": "cell-based", "settings": "TLC plate sprayed with spore suspension", "experimental": "A method similar to that of Homans and Fuchs (1970) was employed. This technique involves direct spraying of thin layer chromatograms with conidial suspensions of a test organism. About 100 μg of extract was spotted on silica gel TLC plates and developed with suitable solvent system. Dried plates were separately sprayed with either a spore suspension of Cladosporium cucumerinum, and subsequent plates with spore suspensions of Cladosporium carrionii, Cladosporium cladosporioides, Cladosporium tennuisimum (ATCC 623337) and Fonsecaea pedrosoi (ATCC 52593), in some cases to determine the spectrum of activity. The plates were then incubated in sealed humid chambers at room temperature for four days in the dark. […] The powdered rhizome of A. danellii (200 g)was continously extracted with petroleum ether (bp 40-60° C.) to exhaustion in as soxhlet extractor. The petroleum ether extracts when combined and concentrated to dryness in vacuo gave a reddish brown residue (11.41 g). The air dried marc from the above extract was again extracted with ethanol in a soxhlet extractor, extracts were concentrated to dryness under reduce pressure using the rotary evaporator at 40° C. Both extracts were tested for antifungal activity using bioautography (TLC-bioassay) as described above. […]"}, "[1]": {"tested_on": "Leishmania (Leishmania) chagasi, MHOM/BR/84/BA-13 promastigotes", "experiment": "in vitro radiorespirometric microtest (RAM), antileishmanial", "assay_type": "cell-based", "settings": "for respiration / metabolic rate for 14C-substrates: 50 μg/ml for 96 h, versus vehicle control", "experimental": "An in vitro radiorespirometric microtest (RAM) technique was used to evaluate the extracts/fractions or pure compounds for possible antileishmanial activity. This method, as already noted, relies on drug inhibition of parasite production of ^14CO2 from a battery of ^14C-substrates by promastigotes to detect drug-mediated parasite damage at low drug concentration within a short time. The test is quantitative, rapid, consistent, and is conducted in serum-free medium in which prior adaptation is not necessary to cultivate the so-called “difficult to grow” species.\nA clinical isolate of visceral Leishmania (Leishmania) chagasi, MHOM/BR/84/BA-13, was used for this study. This isolate was selected because sensitivity to SbV was previously determined using RAM.\nAll ^14C-substrates were selected with specific activities as close to 40 mCi mM^−1 per carbon atom as obtainable from commercial sources.\nThe procedure was conducted as previously described (Jackson et al., 1989, 1990). Promastigotes were maintained in log phase growth for 3 successive transfers (48-72 h apart) prior to radiorespirometric (RAM) testing. Test samples (or PBSS, 0.1 M phosphate-buffered balanced salt solution, plus drug solvent, DMSO, for parallel control cultures) was added 24 h after the third promastigote transfer to fresh growth medium. Incubation in the presence of plant samples was continued for 96 additional hours while the parasites remained in mid-log phase growth. The test sample was tested at 50 μg ml^−1. Drug sensitivity or resistance was based on ^14C-substrate(s) (listed in Table 1) for which ^14CO2 release was decreased for drug-treated parasites compared to parallel tests of phosphate-buffered balanced salt solution and vehicle (PBSS+DMSO) controls. Each experiment consisted of parallel: (a) duplicate tests of drug-treated parasites; plus (b) duplicate tests of drug vehicle control-treated parasites; plus (c) one “nonbiological” sterility control. The nonbiological control consisted of each ^14C-substrate (one substrate per microtiter tray well), and PBSS (the same PBSS batch used to wash, to suspend the parasites, and to make drug solution). Since there were no parasites in the nonbiological control, any ^14CO2 detected was attributed either to biologic contamination (or, less likely, chemical contamination) of the ^14C-substrates resulting in breakdown of the ^14C-substrates. If radioactivity above background (10 dpm) was detected in the nonbiological control, the suspect solution(s) was replaced and the experiment was repeated."}, "[2]": {"tested_on": "Plasmodium falciparum Indochina (W-2) clone", "experiment": "in vitro antimalarial assay, [3H]hypoxanthine uptake, W-2 clone", "assay_type": "cell-based", "settings": "chloroquine-resistant", "experimental": "(§1) The in vitro antimalarial assays were performed by using a modification of the semi-automated microdilution technique described earlier (Desjardins et al., 1979, Milhous et al., 1985). Two Plasmodium falciparum malaria parasite clones, designated Indochina (W-2) and Sierra Leone (D-6), were utilized in susceptibility testing. The W-2 clone is resistant to chloroquine, pyrimethamine, sulfadoxine, and quinine, and the D-6 clone is resistant to mefloquine.\n(§2) The test extracts/compound, was dissolved in DMSO and serially diluted using malarial growth medium. Drug-induced reduction in uptake of titriated hypoxanthine was used as an index of inhibition of parasite growth."}, "[3]": {"tested_on": "Plasmodium falciparum Sierra Leone (D-6) clone", "experiment": "in vitro antimalarial assay, [3H]hypoxanthine uptake, D-6 clone", "assay_type": "cell-based", "settings": "chloroquine-susceptible", "experimental": "as §1, §2"}, "[4]": {"settings": "human; cited from earlier work"}, "[5]": {"tested_on": "Trypanosoma brucei brucei Lab 110 EATRO and Trypanosoma brucei rhodesiense KETRI 243, 269, 243 As-10-3", "experiment": "in vitro trypanosome screen, bloodstream trypomastigotes", "assay_type": "cell-based", "settings": "for IC50: Trypanosoma brucei, RHODESIENSE; for fold increase in activity: versus primary extract / related species", "experimental": "The in vitro activity of 39 plant extracts was tested against four strains of animal or human-pathogenic African trypanosomes, and three strains of mammalian-pathogenic Trichomonas spp. The trypanosomes studied were Trypanosoma brucei brucei Lab 110 EATRO, which is pathogenic to cattle and other livestock, and several strains of Trypanosoma brucei rhodesiense, a parasite of humans, domestic and wild animals. Strains of T. b. rhodesiense included drug resistant clinical isolates KETRI 243 and 269 and KETRI 243 As-10-3, a highly melarsen- and diamidine-resistant clone of KETRI 243. The 39 extracts were tested in an in vitro screen using a semi-defined medium for growth of bloodstream trypomastigotes at 37° C. (Hirumi & Hirumi, 1989) to determine IC50 values (Bacchi et al., 1996). Of these, 10 had IC50values at or below 10 μg/ml and were considered sufficiently active to warrant testing of more purified extracts. Of the four secondary extracts supplied, one, aulacocarpin (III) (SU1460), derived from the primary extract SU787 of A. aulocacarpus featured a 10-15 fold increase in activity. […] Eight additional primary extracts were also tested in the trypanosome screen (Table 3). […] Aulocacarpin (III) is an extract from Aframonum aulocacarpus and has the following formula: [drawing 3]"}, "[6]": {"settings": "Plasmodium falciparum, read-out: IC50"}, "[7]": {"settings": "previously determined using RAM"}}, "note": "Read-outs that look alike come from different tables or passages of the source.", "data": [{"compound": "CCNCCCNCCCNCCCNCC", "note": "[1,11-diethylnorspermine]", "values": [{"measurement": "effect on parasite culture", "setting": "Enterocytozoon cuniculi", "result": "sterilize the culture"}, {"measurement": "toxicity to feeder layer RK13 cells", "setting": "RK13 cells", "result": "without toxicity"}]}, {"compound": "CCNCCCCNCCCCNCCCCNCCCCNCC", "note": "[1,19-bis(ethylamino)5,10,15-triazanonadecane]", "values": [{"measurement": "effect on parasite culture", "setting": "Enterocytozoon cuniculi", "result": "sterilize the culture"}, {"measurement": "toxicity to feeder layer RK13 cells", "setting": "RK13 cells", "result": "without toxicity"}]}, {"compound": "C=C1CC[C@H]2C(C)(C)CCC[C@]2(C)[C@H]1C/C=C(/C=O)CC=O", "note": "[Labda-8(17),12-diene-15,16-dial, labda-8(17),12-diene-15,16-dial]", "values": [{"measurement": "lowest concentration giving a clearly visible inhibition zone", "setting": "Cladosporium cucumerinum", "result": 0.5, "unit": "µg"}, {"measurement": "concentration inhibiting Leishmania promastigotes", "setting": "[1]", "result": "≤ 50", "unit": "µg"}, {"measurement": "inhibition of growth of the leishmania strain", "setting": "[1]; 50 μg/ml", "result": "completely inhibited"}, {"measurement": "respiration / metabolic rate for 14C-substrates", "setting": "[1]", "result": "markedly reduced respiration"}, {"measurement": "respiration / metabolic rate for 14C-substrates", "setting": "[1]; listed as labdane-dial", "result": "near zero"}, {"measurement": "parasite viability in culture", "setting": "[1]; after a 96 hr incubation", "result": "no live parasites were observed"}, {"measurement": "IC50", "setting": "[2]", "result": 0.28018, "unit": "µg/mL"}, {"measurement": "IC50", "setting": "[3]", "result": 0.09666, "unit": "µg/mL"}]}, {"compound": "Nc1nc(N)nc(Nc2ccc([As]3SCC(CO)S3)cc2)n1", "note": "(stereo not shown) [Melarsoprol, melarsoprol]", "values": [{"measurement": "incidence of cerebral episodes", "setting": "[4]", "result": "3-5%"}]}, {"compound": "COC(=O)C(CC[C@H]1C2(CCC3C(C)(C)[C@@H](O)CC[C@@]31C)CO2)C1CO1", "note": "(stereo partly shown) [SU1460, aulacocarpin]", "values": [{"measurement": "IC50", "setting": "[5]", "result": 0.86, "unit": "µg/mL"}, {"measurement": "fold increase in activity", "setting": "[5]", "result": "10-15 fold"}]}, {"compound": "COc1cc(O)c2c(c1)O[C@H](c1ccc(O)cc1)CC2=O", "note": "[Sakuranetin]", "values": [{"measurement": "antileishmanial activity", "setting": "[1]; in vitro", "result": "strongest antileishmanial activity"}, {"measurement": "IC50", "setting": "[2]; [6]", "result": 0.17, "unit": "µg/mL"}, {"measurement": "IC50", "setting": "[3]; [6]", "result": 0.124, "unit": "µg/mL"}]}, {"compound": "CC1(C)CCC[C@@]2(C)[C@H]1CC[C@@]1(CO1)[C@@H]2C/C=C(/C=O)CC=O", "note": "[aframodial]", "values": [{"measurement": "IC50", "setting": "[5]", "result": 0.86, "unit": "µg/mL"}, {"measurement": "fold increase in activity", "setting": "[5]", "result": "10-11 fold"}]}, {"compound": "sodium antimony gluconate [Pentostam, reference compound]", "values": [{"measurement": "concentration at which the isolate is sensitive, as Sb", "setting": "[1]; [7]", "result": 6, "unit": "μg ml^−1 Sb"}, {"measurement": "concentration at which the isolate is sensitive, as drug", "setting": "[1]; [7]", "result": 20, "unit": "μg ml^−1 drug"}]}]}
